Experimental data from DBAASP.
Converted amounts (≈) assume the structure as drawn. Values belong to the compound of their own block, whether it stands above or below them.

Key:
Assay in all cases: ≥ marks a high value that may be exact or a test limit, other limits are often not marked, values filed in µg/mL are converted to µM
[1] = tested on: Bacillus subtilis ATCC 6633
[2] = tested on: Micrococcus luteus DSM 1790
[3] = tested on: Escherichia coli DSM 1103
[4] = tested on: Escherichia coli DH5alpha
[5] = tested on: Kocuria rhizophila DSM 348
[6] = tested on: Staphylococcus aureus DSM 1104
Staphylococcus aureus = tested on: Staphylococcus aureus
Streptococcus sanguinis = tested on: Streptococcus sanguinis
[7] = tested on: Staphylococcus saprophyticus
[8] = tested on: Enterobacter cloacae ATCC 23355
[9] = tested on: Escherichia coli CCT 1371
[10] = tested on: Staphylococcus epidermidis
[11] = tested on: Bacillus subtilis CCT 2471
[12] = tested on: Escherichia coli ATCC 25922
[13] = tested on: Staphylococcus aureus ATCC 25923
[14] = tested on: Staphylococcus aureus ATCC 6538
[15] = tested on: Aspergillus niger ATCC 9029
[16] = tested on: Aspergillus fumigatus Af293
[17] = tested on: Candida albicans ATCC 10231
[18] = tested on: Candida glabrata ATCC 90030
[19] = tested on: Aspergillus flavus PFCC 100
Candida krusei DSM 70079 = tested on: Candida krusei DSM 70079
[20] = tested on: Salmonella typhimurium C610
Bacillus subtilis = tested on: Bacillus subtilis
Escherichia coli O111:B4 = tested on: Escherichia coli O111:B4
[21] = tested on: Staphylococcus aureus SAP 0017
Enterococcus faecalis = tested on: Enterococcus faecalis
[22] = tested on: Pseudomonas aeruginosa H103
[23] = tested on: Staphylococcus aureus K147
[24] = tested on: Bacillus megaterium CIP 51.17
[25] = tested on: Escherichia coli CIP 54.8T
[26] = tested on: Staphylococcus aureus ATCC 12600
[27] = tested on: Escherichia coli ATCC 11775
[28] = tested on: Micrococcus luteus ATCC 49732
[29] = tested on: Candida albicans ATCC 14053
[30] = tested on: Aspergillus fumigatus ATCC 1022
[31] = tested on: Aspergillus flavus ATCC 24109
[32] = tested on: Bacillus subtilis ATCC 6051
[33] = tested on: Pseudomonas aeruginosa ATCC 27853
[34] = tested on: Candida krusei ATCC 28870
[35] = tested on: Saccharomyces cerevisiae PTCC 5052
[36] = tested on: Microsporum canis PTCC 5069
[37] = tested on: Cryptococcus neoformans ATCC 2517
[38] = tested on: Trichophyton mentagrophytes ATCC 32510
[39] = tested on: Enterococcus faecalis ATCC 29212
[40] = tested on: Aspergillus niger ATCC 9142

- MIC [1]: ≥ 68.2 µM
- MIC [2]: ≥ 68.2 µM
- MIC [3]: ≥ 68.2 µM
- MIC [4]: ≥ 68.2 µM
- MIC [5]: ≥ 68.2 µM
- MIC [6]: ≥ 68.2 µM
Structure (SMILES): CC(C)C[C@H](NC(=O)[C@H](C)NC(=O)[C@H](CCCCN)NC(=O)[C@H](CC(C)C)NC(=O)[C@H](C)NC(=O)[C@H](CC(C)C)NC(=O)[C@H](CCCCN)NC(=O)[C@H](CC(C)C)NC(=O)[C@H](C)NC(=O)[C@H](CC(C)C)NC(=O)[C@@H](N)CCCCN)C(=O)N[C@@H](CCCCN)C(=O)N[C@@H](C)C(=O)N[C@@H](C)C(=O)N[C@@H](CC(C)C)C(=O)N[C@@H](CCCCN)C(=O)N[C@@H](CC(C)C)C(=O)N[C@@H](C)C(=O)O [KLALKLALKALKAALKLA]

- MIC (Staphylococcus aureus): 5.8 µM (≈ 6.92 µg/mL)
- MIC (Streptococcus sanguinis): 7.1 µM (≈ 8.48 µg/mL)
Structure (SMILES): NC(=O)[C@H](Cc1ccccc1)NC(=O)[C@H](Cc1ccccc1)NC(=O)[C@H](Cc1ccccc1)NC(=O)[C@H](Cc1ccccc1)NC(=O)[C@H](Cc1ccccc1)NC(=O)[C@H](Cc1ccccc1)NC(=O)[C@H](Cc1ccccc1)NC(=O)[C@@H](N)Cc1ccccc1 [FFFFFFFF]

- MIC [7]: 3 µM (≈ 4.45 µg/mL)
- MIC [8]: 17 µM (≈ 25.2 µg/mL)
- MIC [9]: 17 µM (≈ 25.2 µg/mL)
- MIC [10]: ≥ 34 µM
- MIC [11]: ≥ 68 µM
- MIC [12]: 7 µM (≈ 10.4 µg/mL)
- MIC [13]: 7 µM (≈ 10.4 µg/mL)
- MIC [14]: 34 µM (≈ 50.4 µg/mL)
Structure (SMILES): CC[C@H](C)[C@H](NC(=O)CNC(=O)[C@H](CCSC)NC(=O)[C@H](CC(C)C)NC(=O)[C@H](CCCCN)NC(=O)[C@@H](N)CC(C)C)C(=O)N[C@H](C(=O)N[C@@H](CCCCN)C(=O)N[C@@H](CCCCN)C(=O)N[C@H](C(=O)N[C@@H](CC(C)C)C(=O)NCC(=O)N[C@@H](C)C(=O)N[C@@H](CC(C)C)C(N)=O)C(C)C)C(C)C [LKLMGIVKKVLGAL]

- MIC [15]: 22.5 µM (≈ 62.5 µg/mL)
- MIC [16]: 20.7 µM (≈ 57.5 µg/mL)
- MIC [17]: 21.6 µM (≈ 60 µg/mL)
- MIC [18]: 19.8 µM (≈ 55 µg/mL)
- MIC [19]: 23.4 µM (≈ 65 µg/mL)
- MIC (Candida krusei DSM 70079): 20.7 µM (≈ 57.5 µg/mL)
Structure (SMILES): CC[C@H](C)[C@H](NC(=O)[C@@H](NC(=O)[C@H](CCCCN)NC(=O)[C@H](CC(=O)O)NC(=O)[C@H](C)NC(=O)[C@H](CCC(N)=O)NC(=O)[C@H](CCCN=C(N)N)NC(=O)[C@@H](NC(=O)[C@H](CO)NC(=O)CNC(=O)[C@H](CCCN=C(N)N)NC(=O)[C@H](CCC(=O)O)NC(=O)[C@H](Cc1c[nH]c2ccccc12)NC(=O)[C@@H](NC(=O)[C@H](CS)NC(=O)[C@H](CC(C)C)NC(=O)[C@H](CCC(=O)O)NC(=O)[C@H](CCC(N)=O)NC(=O)[C@H](CCCCN)NC(=O)[C@H](CO)NC(=O)[C@@H](NC(=O)[C@H](CCCN=C(N)N)NC(=O)CN)[C@@H](C)O)[C@@H](C)O)C(C)C)[C@@H](C)O)C(=O)N[C@@H](C)C(=O)NCC(=O)O [GRTSKQELCTWERGSVRQADKTIAG]

- MIC [20]: 5.85 µM (≈ 16 µg/mL)
- MIC (Bacillus subtilis): ≥ 46.8 µM
- MIC (Escherichia coli O111:B4): 5.85 µM (≈ 16 µg/mL)
- MIC [21]: ≥ 46.8 µM
- MIC (Enterococcus faecalis): ≥ 46.8 µM
- MIC [10]: ≥ 46.8 µM
- MIC [22]: 23.4 µM (≈ 64 µg/mL)
- MIC [23]: ≥ 46.8 µM
Structure (SMILES): CC[C@H](C)[C@H](NC(=O)[C@H](C)NC(=O)[C@@H]1CCCN1C(=O)CNC(=O)[C@H](C)NC(=O)[C@@H](NC(=O)[C@H](CCCCN)NC(=O)[C@H](CC(C)C)NC(=O)CNC(=O)[C@H](CO)NC(=O)[C@H](CC(C)C)NC(=O)[C@@H](NC(=O)[C@H](CCCN=C(N)N)NC(=O)[C@H](CCCN=C(N)N)NC(=O)[C@H](Cc1c[nH]c2ccccc12)NC(=O)[C@H](Cc1c[nH]c2ccccc12)NC(=O)[C@H](CCCCN)NC(=O)[C@@H](N)CCCCN)C(C)C)[C@@H](C)O)C(=O)N[C@@H](CCC(N)=O)C(=O)N[C@@H](CO)C(=O)N[C@H](C(=O)N[C@@H](CC(C)C)C(=O)N[C@@H](CC(N)=O)C(=O)N[C@@H](CCCCN)C(=O)O)C(C)C [KKWWRRVLSGLKTAGPAIQSVLNK]

- MIC [24]: ≥ 100 µM
- MIC [25]: ≥ 35.4 µM
Structure (SMILES): CC[C@H](C)[C@H](NC(=O)[C@H](CCCN=C(N)N)NC(=O)[C@H](CC(N)=O)NC(=O)[C@H](CC(C)C)NC(=O)[C@H](Cc1ccccc1)NC(=O)[C@H](CCCN=C(N)N)NC(=O)[C@H](Cc1ccccc1)NC(=O)[C@H](CCCN=C(N)N)NC(=O)[C@@H](NC(=O)[C@H](CC(C)C)NC(=O)[C@@H](NC(=O)[C@@H](N)C(C)C)[C@@H](C)CC)[C@@H](C)O)C(=O)N[C@H](C(=O)N[C@@H](CCC(=O)O)C(=O)N1CCC[C@H]1C(=O)N[C@@H](CC(C)C)C(=O)N[C@@H](CC(C)C)C(=O)N[C@@H](CCCCN)C(=O)N[C@@H](CCCCN)C(=O)N[C@@H](C)C(=O)O)C(C)C [VILTRFRFLNRIVEPLLKKA]

- MIC [26]: ≥ 479 µM
- MIC [27]: ≥ 479 µM
- MIC [28]: ≥ 479 µM
- MIC [29]: ≥ 479 µM
Structure (SMILES): CC(C)C[C@H](NC(=O)[C@H](Cc1cnc[nH]1)NC(=O)[C@@H](N)C(C)C)C(=O)N1CCC[C@H]1C(=O)N1CCC[C@H]1C(=O)O [VHLPP]

- MIC [30]: 7.59 µM (≈ 7.3 µg/mL)
- MIC [31]: ≥ 1040 µM
- MIC [17]: 16.6 µM (≈ 16 µg/mL)
- MIC [32]: ≥ 1040 µM
- MIC [18]: ≥ 130 µM
- MIC [33]: > 1040 µM
- MIC [34]: ≥ 33.3 µM
- MIC [35]: 16.6 µM (≈ 16 µg/mL)
- MIC [36]: ≥ 130 µM
- MIC [37]: ≥ 1040 µM
- MIC [38]: ≥ 65 µM
- MIC [12]: > 1040 µM
- MIC [39]: > 1040 µM
- MIC [40]: ≥ 130 µM
- MIC [13]: > 1040 µM
Structure (SMILES): CC[C@H](C)[C@H](NC(=O)[C@H](CCCCN)NC(=O)[C@H](Cc1ccccc1)NC(=O)[C@@H](N)Cc1c[nH]c2ccccc12)C(=O)N[C@H](C(=O)N[C@@H](CCCCN)C(=O)N[C@@H](CCCCN)C(=O)O)[C@@H](C)CC [WFKIIKK]
